The nature of data set [1]: Toxicity after single injection: body weight and side effects in mice. It counts as in vivo, mouse. As to the method:
FIG. 9: A) Measurement of body weight in mice before treatment. Data are expressed as mean body weight (g) ± SEM. B) Weight gain or loss was analyzed as the difference between the weight at the end and before the treatment. Data are expressed as mean ± SEM.
Therefore, SIMBA2 at the highest dose was able to prevent synaptopathy in vivo.
The toxicity of SIMBA2 after a single injection was evaluated. As an index of the general health of the animals, the change in the body weight of the mice was evaluated. […] 1 month after the I.P. injection, the body weight was measured again.

In data set [2] the test system is mouse cortical neurons. Nature of the data set: MTT toxicity assay on cortical neurons under control conditions. It counts as cell-based. To be noted: 24 hours, 3 doses tested, FIG. 4A. As to the method:
FIG. 4: A) Toxicity at the indicated concentrations of SIMBA2 was evaluated by MTT assay and it is expressed in % survival. Data are expressed as mean ± SEM of 3 independent experiments (n = 6). ANOVA one-way, Dunnett post hoc test. B) Western blot of cortical neurons under control conditions and relative quantification showing that SIMBA2 (0.25-0.5 µM) prevents the phosphorylation of APP at the T668 position in a dose-dependent manner. Data are expressed as mean ± SEM of 3 independent experiments (n = 6). ANOVA one-way, Dunnett’s post-hoc test, ** p <0.01. C) Western blot and related quantification showing that SIMBA2 (0.25-0.5 µM) reduces P-c-Jun phosphorylation in neurons. Data are expressed as mean ± SEM of 3 independent experiments (n = 6). […]
FIG. 10: A) Toxicity at the indicated concentrations of SIMBA2, evaluated by MTT assay and expressed as fold of change with respect to tcontrol. Data are expressed as mean ± SEM of 3 independent experiments (n = 6). […] B) Western blot of cortical neurons under control conditions in the absence (Ctr) or in the presence of SIMBA2 1 µM (1) and relative quantification showing that SIMBA2 (1 µM) at 24 h prevents the phosphorylation of P-c-Jun and reduces the phosphorylation of the APP at position T668 and C) the activity is maintained at 3 days and D) at 6 days after treatment. Data are expressed as mean ± SEM of 2 independent experiments (n = 5). […]
Background: Tetrazolium dyes change colour on reduction, which living cells bring about.

The target in data set [3] is JNK3 (Homo sapiens, UniProt P53779). The experiment in a line: Alpha Screen Kinase Assay, cell-free JNK3 activity. The format is biochemical. Conditions: cell-free AlphaScreen, FIG. 3B. Here is the method: FIG. 3: A) Cell-free assay of JNK1 activity in the presence of peptides according to the invention.
JNK3, sequence (P53779 whole entry, species assumed): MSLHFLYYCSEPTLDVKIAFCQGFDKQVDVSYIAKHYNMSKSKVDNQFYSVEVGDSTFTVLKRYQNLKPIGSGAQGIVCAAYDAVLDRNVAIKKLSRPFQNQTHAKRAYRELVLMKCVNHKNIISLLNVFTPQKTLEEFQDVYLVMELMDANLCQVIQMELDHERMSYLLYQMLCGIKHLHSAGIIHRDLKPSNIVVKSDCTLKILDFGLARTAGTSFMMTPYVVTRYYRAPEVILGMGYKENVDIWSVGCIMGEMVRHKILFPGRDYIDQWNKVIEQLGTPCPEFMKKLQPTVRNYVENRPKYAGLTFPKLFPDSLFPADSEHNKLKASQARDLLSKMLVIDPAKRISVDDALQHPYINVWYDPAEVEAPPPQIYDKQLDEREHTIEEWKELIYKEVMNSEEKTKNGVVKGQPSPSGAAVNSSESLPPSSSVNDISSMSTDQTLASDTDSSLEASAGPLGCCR
To evaluate the specificity of the four peptides described above for JNK3, the Alpha Screen Kinase Assay was performed, following the experimental method described for the cell-free assays. Briefly, this AlphaScreen assay is used to measure the ability of the JNK kinase to phosphorylate its targets. The kinase reaction was performed under the following buffer conditions of the assay: 20 mM Tris / HCl (pH 7.4), 10 mM MgCl2, 1 mM DTT, 100 µM Na3VO4 and 0.01% Tween-20. Compounds (final concentration 5 µg / mL, 1% DMSO) or the control vehicle (final concentration 1% DMSO) were diluted in the assay buffer and mixed with JNK kinase (final concentration 5 nM). After an incubation time of 15 minutes at room temperature, biotinylated substrate, 6 nM final and ATP, 1 µM final diluted in assay buffer were added, followed by incubation of the dishes for 2 hours at room temperature. After this incubation period, the streptavidin donor and acceptor beads coated with anti-phosphosubstrate protein A antibody were added, with a final concentration of each component of 20 µg / mL, diluted in the following buffer: 20 mM Tris / HCl (pH 7.4), 200 mM NaCl, 80 mM ethylenediamine tetraacetic acid (EDTA) and 0.3% bovine serum albumin (BSA). After an overnight incubation, the dosage was measured using the AlphaQuest reader.
The ATP-competitive and non-selective inhibitor SP600125 was used as a positive control for the different isoforms of JNK.
In general terms: In Alpha technology, singlet oxygen from a donor bead excites a nearby acceptor bead.

Ends that are not written are not given here.

Four substances from patent US20230192785A1, “JNK3 INHIBITORY PEPTIDES” (UNIVERSITA' DEGLI STUDI DI MILANO, priority 2020, published 2023) can be followed below.

As to “SDRSLHLEANEKGENVNVHVTKTRADKSKIKVSVRQYADINEKGEAQYKCPVAQLE [SIMBA2]”, in data set [1] (1 month after single I.P. injection, FIG. 9B), the “change in body weight” value is reported as “did not show changes in body weight”. The “side effects in vivo” value in data set [1] (TgCRND8 mice, 22 mg/kg) is “did not lead to the onset of any noticeable side effects”. Besides, the “toxicity (MTT, % survival)” value in data set [2] was “no toxicity”.

As to “SIMBA2 short A: peptide SDRSLHLEAEKGNVNVHVTKTEKGKIKVSVRQYADIEKGAQYKCPVAQLE (Designed peptide based on size and structure to act in the interaction among beta-arrestin-2 and JNK3)”, the “inhibition of JNK3 activity on p-c-Jun” value in data set [3] was “inhibit the activity of JNK3 on p-c-Jun in a concentration-dependent manner”.

On to “SIMBA2 long A: peptide SDRSLHLEANEKGENVNVHVTKTNEKGEKIKVSVRQYADINEKGEAQYKCPVAQLE (Designed peptide based on size and structure to act in the interaction among beta-arrestin-2 and JNK3)”, for which, in data set [3], the “inhibition of JNK3 activity on p-c-Jun” value is “inhibit the activity of JNK3 on p-c-Jun in a concentration-dependent manner”.

For the substance “SIMBA2 short B: peptide SDRSLHLEAEKGNVNVHVTKTADKKIKVSVRQYADIEKGAQYKCPVAQLE (Designed peptide based on size and structure to act in the interaction among beta-arrestin-2 and JNK3)”, the “inhibition of JNK3 activity on p-c-Jun” value in data set [3] is given as “inhibit the activity of JNK3 on p-c-Jun in a concentration-dependent manner”.
